Measurements published in EP4620312A1, “ENDOTHELIN-1 SECRETION INHIBITOR” (Mitsui DM Sugar Co., Ltd., priority 2022, dated 2024).

System: endothelin-1
Assay: Endothelin-1 concentration in blood (ELISA) before and after a 75-g OGTT during 12-week daily jelly ingestion
Assay type: in vivo, human
Settings: for endothelin-1 concentration at 60 minutes and 120 minutes after the 75-g OGTT compared to before the 75-g OGTT: healthy middle to elderly persons
Procedure: Subjects were 54 healthy middle to elderly persons (30 males and 24 females). All subjects were assigned to one of the groups, i.e., an isomaltulose ingestion group (Group I) and a sucrose ingestion group (Group S), in a single blind test before intervention, and the intervention was performed for 12 weeks each.
All subjects ingested jellies having compositions described in Table 1 once a day for 12 weeks continuously. Group I received a jelly containing isomaltulose (Example 1), and group S received a jelly containing sucrose (Comparative Example 1). The jelly was taken every morning before breakfast, and all subjects were instructed not to change their dietary habits during the intervention period from those before the intervention. A 75 g oral glucose tolerance test (75-g OGTT, described in detail below) was performed before the 12-week intervention and at 4 weeks, 8 weeks, and 12 weeks after the start of the intervention, after the lapse of 1 day or more from the ingestion of the jelly and the secretion amount of endothelin-1 was evaluated by the method described below before the 75-g OGTT and at 60 minutes and 120 minutes after the 75-g OGTT.
The 75-g OGTT was performed under the instruction of a doctor using TRELAN- G 75 g (Yoshindo Inc.), which is generally used in medical institutions and research, and the test solution was orally ingested in a general volume (225 mL per dose) within 5 minutes according to the guidelines of the Japan Diabetes Society (Araki E, Goto A, Kondo T, Noda M, Noto H, Origasa H, et al. Japanese Clinical Practice Guideline for Diabetes 2019. J Diabetes Investig 2020; 11: 1020-1076.).
For all subjects, blood was collected from the cubital vein in a fasting state for 12 hours or more in a hygienic environment. Before ingestion of a carbohydrate solution for the 75-g OGTT and at 60 minutes and 120 minutes after the ingestion, a nurse collected blood (15 to 20 mL per collection) using a sterilized disposable blood collection needle under the instruction of a doctor. A sample after blood collection was immediately centrifuged at 4°C and 3000 rpm for 15 minutes, and the concentration of endothelin-1 was measured by ELISA (enzyme-linked immunosorbent assay) using a test kit (Cayman Chemical, Ann Arbor) for measuring the concentration of endothelin-1.
A change in endothelin-1 concentration before and after the start of the intervention of each group was shown as the average value (95% confidence interval). For the comparison of the change in endothelin-1 concentration between the 2 groups before and after the 75-g OGTT, a two-way repeated measures ANOVA was used. The Bonferroni method was performed for comparison of changes in each intervention in post-hoc test. The total area under the curve at 90 minutes (endothelin-1 concentration AUC) was calculated using the trapezoidal rule. For statistical analysis, IBM SPSS Statistics Ver. 25 (manufactured by IBM Corporation) was used. The statistical significance level in this test was set at 5%.

[1] = jelly with 25 g once a day, oral, at 4, 8, and 12 weeks after the start of the intervention

Compound | secretion of endothelin-1 (overall conclusion) (after 75-g OGTT at 4, 8, and 12 weeks after the start of the intervention, Group I versus Group S) | endothelin-1 concentration at 60 minutes and 120 minutes after the 75-g OGTT compared to before the 75-g OGTT [1] | endothelin-1 concentration before the 75-g OGTT and at 60 minutes and 120 minutes after the 75-g OGTT, Group I versus Group S (jelly with 25 g once a day, oral, at 4, 8, and 12 weeks after the start of the intervention, p < 0.01) | endothelin-1 concentration AUC, Group I versus Group S (jelly with 25 g once a day, oral, at 4, 8, and 12 weeks after the start of the intervention, trapezoidal rule, p < 0.01)
6-O-α-D-glucopyranosyl-D-fructose [isomaltulose] | inhibited the secretion of endothelin-1 | no significant change | significantly lower value | significantly lower value
OC[C@H]1O[C@@](CO)(O[C@H]2O[C@H](CO)[C@@H](O)[C@H](O)[C@H]2O)[C@@H](O)[C@@H]1O [sucrose, reference compound] |  | significantly increased |  | 
